# Values quoted from earlier work, collected in patent US20120283175A1, “ANTIBACTERIAL COMPOSITIONS” (Achaogen, Inc., priority 2009, published 2012).
# System: E. coli strain ATCC 25922
# Details: reported in US 2004-229955A1; cited from earlier work
smiles,measurement,value
"Cc1cccc(CNCC(=O)Nc2ccc(C#CC#Cc3ccc(C(=O)N[C@@H](CN)C(=O)NO)cc3)cc2)c1 [N-[(1S)-1-(aminomethyl)-2-(hydroxyamino)-2-oxoethyl]-4-(4-{4-[({[(3methylphenyl)methyl]amino}acetyl)amino]phenyl}buta-1,3-diynyl)benzamide]",synergy with erythromycin,strong synergy
